Experimental findings from patent US9631001B2, “Peptide antagonists of the vasopressin-2 receptor” (COMMISSARIAT A L'ENERGIE ATOMIQUE ET AUX ENERGIES …, priority 2012, dated 2017) are described below.

What all share (experiment): IonWorks electrophysiological assay
Holding throughout (type): cell-based
What all share (conditions): 1 μM
(In general: The patch-clamp technique gives a direct electrical read-out from membranes.)

One series deals with T1, Kir2.1 (Homo sapiens, UniProt P63252).
T1 construct: expressed in transfected cells
T1 sequence (P63252 1-427): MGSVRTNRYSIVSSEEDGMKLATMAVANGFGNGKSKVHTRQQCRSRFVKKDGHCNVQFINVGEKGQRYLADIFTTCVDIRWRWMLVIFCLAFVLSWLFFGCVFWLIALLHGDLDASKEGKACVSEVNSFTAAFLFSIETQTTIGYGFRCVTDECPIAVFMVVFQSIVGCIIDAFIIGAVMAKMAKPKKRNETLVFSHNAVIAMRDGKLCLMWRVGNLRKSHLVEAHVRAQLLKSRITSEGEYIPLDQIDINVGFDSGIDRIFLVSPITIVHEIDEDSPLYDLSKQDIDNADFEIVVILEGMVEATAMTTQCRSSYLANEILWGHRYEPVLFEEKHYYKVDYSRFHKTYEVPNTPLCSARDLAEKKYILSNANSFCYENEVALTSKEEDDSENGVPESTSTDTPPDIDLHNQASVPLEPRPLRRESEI
The method, then:
(§1) The stock solution was transferred to a master plate and into assay plates where 2 μl per well of the solution were placed. On the day of the assay, 198 μl of external solution containing the appropriate DMSO concentration was added and mixed thoroughly. This provided a 1:100 dilution. A further 1:3 dilution occurred upon addition to the cells in the IonWorks, giving a 1:300 dilution in total. On each assay plate, at least 8 wells were reserved for vehicle control (0.3% DMSO) and at least 8 wells for each positive control specific to the cell line tested. The positive controls were tested at a maximal blocking and an approximate IC50 concentration. The compounds used for positive controls: Nav1.5 100 μM and 5 mM Lidocaine, Kv4.3/KChIP2 20 μM and 500 μM Quinidine, Cav1.2 1 μM and 100 μM Nitrendipine, Kv1.5 300 μM and 10 mM 4-AP, KCNQ1/minK 10 μM and 100 μM Chromanol 293B, hERG 0.1 μM and 1 μM Cisapride, HCN4 50 μM and 3 mM Cesium, Kir2.1 20 μM and 500 μM Barium.

The next series concerns the target T2, Kv1.5 (Homo sapiens, UniProt P22460).
T2 construct: expressed in transfected cells
The method, then: as §1

Another series addresses T3, Kv4.3/KChIP2 (Homo sapiens, UniProt Q9UK17).
T3 construct: expressed in transfected cells
T3 sequence (Q9UK17 1-655): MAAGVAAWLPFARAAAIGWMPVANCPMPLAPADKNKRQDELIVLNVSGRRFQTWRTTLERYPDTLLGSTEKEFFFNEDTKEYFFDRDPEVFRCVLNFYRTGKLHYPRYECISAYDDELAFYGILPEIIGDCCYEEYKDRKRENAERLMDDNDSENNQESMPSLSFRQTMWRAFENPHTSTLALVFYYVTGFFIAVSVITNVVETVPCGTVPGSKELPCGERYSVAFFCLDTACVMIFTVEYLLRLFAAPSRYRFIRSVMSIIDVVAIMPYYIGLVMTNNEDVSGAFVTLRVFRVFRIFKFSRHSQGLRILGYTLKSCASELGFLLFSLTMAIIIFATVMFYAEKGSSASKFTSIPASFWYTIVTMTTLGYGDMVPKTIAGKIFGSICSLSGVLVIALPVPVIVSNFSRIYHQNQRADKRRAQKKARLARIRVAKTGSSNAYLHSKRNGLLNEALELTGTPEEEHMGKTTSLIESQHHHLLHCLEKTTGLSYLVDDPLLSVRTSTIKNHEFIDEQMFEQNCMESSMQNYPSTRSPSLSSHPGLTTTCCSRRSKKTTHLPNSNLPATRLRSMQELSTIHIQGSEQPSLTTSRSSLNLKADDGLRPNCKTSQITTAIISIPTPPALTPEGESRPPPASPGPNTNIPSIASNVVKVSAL
T3 sequence (Q9NS61 1-270 partner): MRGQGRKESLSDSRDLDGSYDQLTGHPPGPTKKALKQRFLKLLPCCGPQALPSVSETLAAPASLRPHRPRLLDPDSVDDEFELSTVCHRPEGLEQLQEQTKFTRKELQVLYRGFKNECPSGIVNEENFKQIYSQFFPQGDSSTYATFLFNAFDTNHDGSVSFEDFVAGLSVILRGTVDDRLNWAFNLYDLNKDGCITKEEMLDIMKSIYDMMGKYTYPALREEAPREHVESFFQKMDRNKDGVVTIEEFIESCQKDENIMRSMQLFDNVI
The method, then: as §1

The target in the next series is T4, Nav1.5 (Homo sapiens, UniProt Q14524).
T4 construct: expressed in transfected cells
As to the method:
as §1

The target in a further series is T5, hERG (Homo sapiens, UniProt Q12809).
T5 construct: expressed in transfected cells
As to the method:
as §1

T5 sequence (Q12809 whole entry): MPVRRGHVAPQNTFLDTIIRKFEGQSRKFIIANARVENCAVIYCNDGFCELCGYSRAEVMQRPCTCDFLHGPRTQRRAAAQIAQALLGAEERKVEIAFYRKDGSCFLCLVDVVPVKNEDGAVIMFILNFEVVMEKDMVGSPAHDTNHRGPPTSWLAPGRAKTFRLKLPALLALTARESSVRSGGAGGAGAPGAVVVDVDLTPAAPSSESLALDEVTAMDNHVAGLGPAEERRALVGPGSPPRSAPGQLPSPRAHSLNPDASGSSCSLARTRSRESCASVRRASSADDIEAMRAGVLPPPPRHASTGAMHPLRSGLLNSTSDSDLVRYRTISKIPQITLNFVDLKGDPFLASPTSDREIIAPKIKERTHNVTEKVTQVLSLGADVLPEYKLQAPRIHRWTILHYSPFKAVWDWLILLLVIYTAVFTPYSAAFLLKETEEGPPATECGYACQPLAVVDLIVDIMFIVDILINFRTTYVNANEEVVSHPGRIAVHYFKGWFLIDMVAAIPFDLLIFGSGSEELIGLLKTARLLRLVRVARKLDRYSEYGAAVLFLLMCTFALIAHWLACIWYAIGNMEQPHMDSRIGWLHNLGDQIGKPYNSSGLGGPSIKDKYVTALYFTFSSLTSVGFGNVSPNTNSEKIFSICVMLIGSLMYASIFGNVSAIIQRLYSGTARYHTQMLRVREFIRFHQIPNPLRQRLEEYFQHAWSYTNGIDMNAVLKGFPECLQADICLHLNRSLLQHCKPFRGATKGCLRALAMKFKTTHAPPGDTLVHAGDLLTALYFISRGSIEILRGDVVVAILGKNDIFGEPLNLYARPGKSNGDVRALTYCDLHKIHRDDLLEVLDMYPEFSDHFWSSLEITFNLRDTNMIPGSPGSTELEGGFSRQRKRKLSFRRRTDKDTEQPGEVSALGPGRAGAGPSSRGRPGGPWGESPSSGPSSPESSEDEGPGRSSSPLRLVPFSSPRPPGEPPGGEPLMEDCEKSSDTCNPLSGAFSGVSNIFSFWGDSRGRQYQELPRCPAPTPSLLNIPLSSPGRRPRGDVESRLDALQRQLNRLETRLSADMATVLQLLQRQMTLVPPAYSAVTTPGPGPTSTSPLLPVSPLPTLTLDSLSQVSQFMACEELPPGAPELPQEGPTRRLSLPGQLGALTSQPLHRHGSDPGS
T2 sequence (P22460 whole entry): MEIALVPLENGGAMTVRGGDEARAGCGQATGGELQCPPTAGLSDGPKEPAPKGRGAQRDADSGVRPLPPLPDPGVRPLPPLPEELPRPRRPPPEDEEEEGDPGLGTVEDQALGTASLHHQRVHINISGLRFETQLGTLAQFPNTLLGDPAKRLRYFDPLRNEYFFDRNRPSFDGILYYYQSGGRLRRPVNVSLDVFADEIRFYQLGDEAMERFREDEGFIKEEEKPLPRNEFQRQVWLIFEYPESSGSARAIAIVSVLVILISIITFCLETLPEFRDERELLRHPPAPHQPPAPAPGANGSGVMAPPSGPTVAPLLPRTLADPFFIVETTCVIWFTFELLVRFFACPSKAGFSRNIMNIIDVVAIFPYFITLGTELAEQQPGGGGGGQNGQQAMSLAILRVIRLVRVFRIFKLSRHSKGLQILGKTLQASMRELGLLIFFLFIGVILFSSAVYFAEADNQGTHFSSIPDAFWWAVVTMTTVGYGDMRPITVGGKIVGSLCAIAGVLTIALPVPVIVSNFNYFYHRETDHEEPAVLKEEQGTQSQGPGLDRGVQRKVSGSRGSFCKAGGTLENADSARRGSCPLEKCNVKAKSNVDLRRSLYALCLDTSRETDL
T4 sequence (Q14524 whole entry): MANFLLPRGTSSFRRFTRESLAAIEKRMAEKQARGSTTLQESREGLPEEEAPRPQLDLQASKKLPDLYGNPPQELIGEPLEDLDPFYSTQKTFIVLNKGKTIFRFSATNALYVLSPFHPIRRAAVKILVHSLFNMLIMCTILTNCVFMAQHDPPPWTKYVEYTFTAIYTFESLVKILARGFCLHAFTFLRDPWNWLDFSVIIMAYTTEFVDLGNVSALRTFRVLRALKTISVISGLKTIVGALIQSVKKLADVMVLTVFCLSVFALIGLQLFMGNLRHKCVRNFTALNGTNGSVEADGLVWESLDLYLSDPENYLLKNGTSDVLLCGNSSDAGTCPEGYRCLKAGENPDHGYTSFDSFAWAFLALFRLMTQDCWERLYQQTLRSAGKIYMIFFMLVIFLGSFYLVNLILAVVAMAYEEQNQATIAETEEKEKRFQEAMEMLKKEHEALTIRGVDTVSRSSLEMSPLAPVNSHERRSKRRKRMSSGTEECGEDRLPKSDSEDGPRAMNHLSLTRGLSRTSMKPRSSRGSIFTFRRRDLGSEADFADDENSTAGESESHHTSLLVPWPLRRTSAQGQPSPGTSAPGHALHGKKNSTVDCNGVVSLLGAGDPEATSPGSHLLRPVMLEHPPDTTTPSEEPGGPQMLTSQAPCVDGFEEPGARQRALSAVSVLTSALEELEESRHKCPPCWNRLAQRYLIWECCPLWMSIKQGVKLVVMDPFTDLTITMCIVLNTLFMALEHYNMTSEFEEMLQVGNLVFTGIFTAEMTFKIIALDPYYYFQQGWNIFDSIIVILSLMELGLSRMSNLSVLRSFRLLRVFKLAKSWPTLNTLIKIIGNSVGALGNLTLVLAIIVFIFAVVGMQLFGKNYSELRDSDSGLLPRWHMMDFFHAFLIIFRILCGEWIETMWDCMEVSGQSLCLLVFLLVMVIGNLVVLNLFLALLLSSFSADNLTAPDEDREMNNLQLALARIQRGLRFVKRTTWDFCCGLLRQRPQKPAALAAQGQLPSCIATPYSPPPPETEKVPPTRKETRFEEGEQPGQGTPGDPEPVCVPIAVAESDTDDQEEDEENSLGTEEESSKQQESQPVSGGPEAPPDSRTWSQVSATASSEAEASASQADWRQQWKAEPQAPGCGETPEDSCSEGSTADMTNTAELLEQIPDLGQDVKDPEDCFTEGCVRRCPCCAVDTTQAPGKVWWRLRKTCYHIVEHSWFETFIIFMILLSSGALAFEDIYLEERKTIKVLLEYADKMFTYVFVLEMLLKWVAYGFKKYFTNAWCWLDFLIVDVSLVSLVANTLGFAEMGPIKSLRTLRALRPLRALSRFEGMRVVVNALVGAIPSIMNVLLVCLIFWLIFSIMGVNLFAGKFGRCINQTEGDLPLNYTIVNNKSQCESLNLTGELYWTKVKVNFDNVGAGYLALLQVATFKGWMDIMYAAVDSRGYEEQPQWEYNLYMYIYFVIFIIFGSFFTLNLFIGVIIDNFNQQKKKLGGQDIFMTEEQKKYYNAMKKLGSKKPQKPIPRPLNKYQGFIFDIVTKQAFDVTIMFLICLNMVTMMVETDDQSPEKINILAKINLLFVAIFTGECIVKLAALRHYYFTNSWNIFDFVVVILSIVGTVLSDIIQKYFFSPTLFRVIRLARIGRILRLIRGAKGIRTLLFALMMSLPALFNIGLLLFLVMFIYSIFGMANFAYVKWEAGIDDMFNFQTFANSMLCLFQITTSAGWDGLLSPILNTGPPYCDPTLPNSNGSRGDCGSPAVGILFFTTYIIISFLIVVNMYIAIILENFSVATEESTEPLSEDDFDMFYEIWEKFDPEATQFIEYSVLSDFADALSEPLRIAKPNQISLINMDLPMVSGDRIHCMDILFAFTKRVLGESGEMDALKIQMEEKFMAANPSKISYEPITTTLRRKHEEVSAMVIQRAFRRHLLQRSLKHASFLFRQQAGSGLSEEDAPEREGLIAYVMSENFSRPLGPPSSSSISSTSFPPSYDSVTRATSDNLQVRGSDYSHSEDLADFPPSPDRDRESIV

As to `CC[C@H](C)[C@@H]1NC(=O)[C@H]([C@@H](C)O)NC(=O)[C@H](CO)NC(=O)[C@H](Cc2ccccc2)NC(=O)[C@H](CCCNC(=N)N)NC(=O)[C@H](CC(N)=O)NC(=O)[C@H](C)NC(=O)[C@H](CC(N)=O)NC(=O)CNC(=O)[C@H](CCCCN)NC(=O)[C@@H]2CSSC[C@@H]3NC(=O)[C@@H]4CCCN4C(=O)CNC(=O)[C@@H]4CCCN4C(=O)[C@H](CCCCN)NC(=O)[C@H](C(C)C)NC(=O)[C@@H]4CCCN4C(=O)[C@H](CC(C)C)NC(=O)[C@H](CC(N)=O)NC(=O)[C@@H](NC(=O)[C@H](Cc4ccccc4)NC(=O)[C@H](CO)NC(=O)[C@@H]4CCCN4C(=O)[C@@H](N)CCCNC(=N)N)CSSC[C@@H](C(=O)N[C@H](C(=O)NCC(=O)O)C(C)C)NC(=O)[C@H]([C@@H](C)O)NC(=O)[C@H](CCCNC(=N)N)NC(=O)[C@H](CCCNC(=N)N)NC(=O)[C@H](CSSC[C@H](NC(=O)[C@H](CCCCN)NC(=O)[C@H](CC(N)=O)NC(=O)[C@H]([C@@H](C)O)NC(=O)[C@H](CCCCN)NC(=O)[C@H](CCC(N)=O)NC(=O)[C@H](CO)NC(=O)[C@H](Cc4ccc(O)cc4)NC(=O)[C@H](Cc4ccc(O)cc4)NC(=O)[C@H](Cc4ccccc4)NC(=O)[C@H](C)NC(=O)[C@H](CO)NC(=O)[C@H](Cc4ccccc4)NC(=O)[C@H](Cc4ccccc4)NC(=O)CNC(=O)[C@H](CC(N)=O)NC3=O)C(=O)N[C@@H](Cc3c[nH]cn3)C(=O)N[C@@H](CO)C(=O)N[C@@H](Cc3ccccc3)C(=O)N[C@@H]([C@@H](C)O)C(=O)N[C@@H](Cc3ccc(O)cc3)C(=O)NCC(=O)NCC(=O)N2)NC(=O)[C@H](CCCCN)NC(=O)[C@H](CCC(=O)O)NC1=O` [U-Da2a], the “inhibition of Kir2.1” value on Kir2.1 is given as “did not appear to exhibit significant inhibition”. For the same compound, the “inhibition of Kv1.5” value at Kv1.5 is on record as “did not appear to exhibit significant inhibition”. Also, the “inhibition of Kv4.3/KChIP2” value against Kv4.3/KChIP2 was “did not appear to exhibit significant inhibition”. Also, on Nav1.5, the “inhibition of Nav1.5” value is “did not appear to exhibit significant inhibition”. Further, the “inhibition of hERG” value on hERG is given as “did not appear to exhibit significant inhibition”.
